Experimental data: patent publication US20130029962A1, “Substituted Heteroaromatic Pyrazole-Containing Carboxamide and Urea Compounds as Vanilloid Receptor Ligands” (Gruenenthal GmbH, priority 2011, published 2013)

The molecules below were run against T1, vanilloid receptor 1 (VR1/TRPV1 receptor) (Homo sapiens, UniProt Q8NER1) (assay: Functional testing on the vanilloid receptor 1 (VR1/TRPV1): FLIPR Ca2+ influx assay, displacement of capsaicin). Settings: 5 μM compound; capsaicin (Cap); human being; read-out: inhibition (as a percentage) at the concentration after @, Cap.
T1 construct: expressed in transfected cells; host or cells: CHO K1
Type: cell-based, human being
Parameters: key to mode of action at VR1/TRPV1 (AG, pAG, NE), Cap: AG=agonist; NE=no effect; pAG=partial agonist
Summary of the method: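 Fluo-4 FLIPR Ca2+ influx in CHO K1 cells transfected with human VR1, measuring displacement of 100 nM capsaicin; rat VR1 agonism/antagonism also assessed in rat dorsal root ganglion neurons cultured 2–3 days at 37° C with 25 ng/mL NGF, then loaded with 2 μM Fluo-4.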

T1 sequence (Q8NER1 whole entry): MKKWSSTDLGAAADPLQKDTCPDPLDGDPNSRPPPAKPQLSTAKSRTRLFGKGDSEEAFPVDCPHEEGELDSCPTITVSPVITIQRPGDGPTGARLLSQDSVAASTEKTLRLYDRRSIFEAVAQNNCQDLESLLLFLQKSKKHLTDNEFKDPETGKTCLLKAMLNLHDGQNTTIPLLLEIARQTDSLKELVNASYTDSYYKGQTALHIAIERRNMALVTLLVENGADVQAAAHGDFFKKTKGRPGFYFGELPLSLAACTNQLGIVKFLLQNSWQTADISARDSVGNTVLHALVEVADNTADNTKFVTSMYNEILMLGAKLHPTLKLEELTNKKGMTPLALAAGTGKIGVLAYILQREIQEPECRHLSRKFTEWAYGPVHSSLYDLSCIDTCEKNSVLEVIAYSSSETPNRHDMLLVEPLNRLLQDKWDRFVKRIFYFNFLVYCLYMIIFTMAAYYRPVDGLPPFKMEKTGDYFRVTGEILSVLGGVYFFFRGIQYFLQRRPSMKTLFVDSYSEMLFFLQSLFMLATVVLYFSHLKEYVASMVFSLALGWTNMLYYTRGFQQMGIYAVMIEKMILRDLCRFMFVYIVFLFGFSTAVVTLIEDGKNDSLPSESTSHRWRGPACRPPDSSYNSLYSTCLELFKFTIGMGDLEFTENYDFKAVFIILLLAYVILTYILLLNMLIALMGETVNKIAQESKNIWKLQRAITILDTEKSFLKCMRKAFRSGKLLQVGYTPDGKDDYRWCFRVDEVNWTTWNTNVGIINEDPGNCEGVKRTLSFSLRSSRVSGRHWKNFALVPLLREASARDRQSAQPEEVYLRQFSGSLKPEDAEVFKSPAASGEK

inhibition at 5 µM | Structure (SMILES)
47% | COc1ncc(NC(=O)NCc2cc(C(F)(F)F)nn2-c2cccc(Cl)c2)cn1 [Example 130, 1-((1-(3-chlorophenyl)-3-(trifluoromethyl)-1H-pyrazol-5-yl)methyl)-3-(2-methoxypyrimidin-5-yl)urea]
83% | COCCOc1ccc(NC(=O)NCc2cc(C(C)(C)C)nn2-c2cccc(Cl)c2)cn1 [Example 131, 1-((3-tert-butyl-1-(3-chlorophenyl)-1H-pyrazol-5-yl)methyl)-3-(6-(2-methoxyethoxy)pyridin-3-yl)urea]
45% | COCCOc1ccc(NC(=O)NCc2cc(C(F)(F)F)nn2-c2cccc(Cl)c2)cn1 [Example 132, 1-((1-(3-chlorophenyl)-3-(trifluoromethyl)-1H-pyrazol-5-yl)methyl)-3-(6-(2-methoxyethoxy)pyridin-3-yl)urea]
22% | CN(CCO)Cc1ccc(NC(=O)NCc2cc(C(F)(F)F)nn2-c2cccc(Cl)c2)cn1 [Example 135, 1-((1-(3-chlorophenyl)-3-(trifluoromethyl)-1H-pyrazol-5-yl)methyl)-3-(6-(((2-hydroxyethyl)(methyl)amino)methyl)pyridin-3-yl)urea]
51% | Cc1nc(CO)ccc1NC(=O)NCc1cc(C(F)(F)F)nn1-c1cccc(Cl)c1 [Example 141, 1-((1-(3-chlorophenyl)-3-(trifluoromethyl)-1H-pyrazol-5-yl)methyl)-3-(6-(hydroxymethyl)-2-methylpyridin-3-yl)urea]

Same assay, conditions: capsaicin (Cap) as stimulus; Ki from IC50 by Cheng-Prusoff; read-out: (f) Ki (human being) [nM] Cap

Ki | Structure (SMILES)
46 nM | O=C(NCc1cc(C(F)(F)F)nn1-c1cccc(Cl)c1)Nc1ccc(N2CCC2)nc1 [Example 109, 1-(6-(azetidin-1-yl)pyridin-3-yl)-3-((1-(3-chlorophenyl)-3-(trifluoromethyl)-1H-pyrazol-5-yl)methyl)urea]
38 nM | O=C(NCc1cc(C(F)(F)F)nn1-c1cccc(Cl)c1)Nc1ccc(N2CC(O)C2)nc1 [Example 111, 1-((1-(3-chlorophenyl)-3-(trifluoromethyl)-1H-pyrazol-5-yl)methyl)-3-(6-(3-hydroxyazetidin-1-yl)pyridin-3-yl)urea]
48 nM | O=C(NCc1cc(C(F)(F)F)nn1-c1cccc(F)c1)Nc1ccc(N2CC(O)C2)nc1 [Example 112, 1-((1-(3-fluorophenyl)-3-(trifluoromethyl)-1H-pyrazol-5-yl)methyl)-3-(6-(3-hydroxyazetidin-1-yl)pyridin-3-yl)urea]
80 nM | O=C(NCc1cc(C(F)(F)F)nn1-c1ccc(F)c(Cl)c1)Nc1ccc(N2CC(O)C2)nc1 [Example 113, 1-((1-(3-chloro-4-fluorophenyl)-3-(trifluoromethyl)-1H-pyrazol-5-yl)methyl)-3-(6-(3-hydroxyazetidin-1-yl)pyridin-3-yl)urea]
2 nM | CC(C)c1cccc(-n2nc(C(F)(F)F)cc2CNC(=O)Nc2ccc(N3CC(O)C3)nc2)c1 [Example 115, 1-(6-(3-hydroxyazetidin-1-yl)pyridin-3-yl)-3-((1-(3-isopropylphenyl)-3-(trifluoromethyl)-1H-pyrazol-5-yl)methyl)urea]
18 nM | CC(C)(C)c1cc(CNC(=O)Nc2ccc(N3CC(O)C3)nc2)n(-c2cccc(Cl)c2)n1 [Example 117, 1-((3-tert-butyl-1-(3-chlorophenyl)-1H-pyrazol-5-yl)methyl)-3-(6-(3-hydroxyazetidin-1-yl)pyridin-3-yl)urea]
23 nM | CC(C)(C)c1cc(CNC(=O)Nc2ccc(N3CCCC3)nc2)n(-c2cccc(Cl)c2)n1 [Example 120, 1-((3-tert-butyl-1-(3-chlorophenyl)-1H-pyrazol-5-yl)methyl)-3-(6-(pyrrolidin-1-yl)pyridin-3-yl)urea]
83 nM | COc1cc(NC(=O)NCc2cc(C(F)(F)F)nn2-c2cccc(Cl)c2)cnc1N1CCCC1 [Example 123, 1-((1-(3-chlorophenyl)-3-(trifluoromethyl)-1H-pyrazol-5-yl)methyl)-3-(5-methoxy-6-(pyrrolidin-1-yl)pyridin-3-yl)urea]
64 nM | O=C(NCc1cc(C(F)(F)F)nn1-c1cccc(Cl)c1)Nc1ccc(N2CC[C@H](O)C2)nc1 [Example 125, (S)-1-((1-(3-chlorophenyl)-3-(trifluoromethyl)-1H-pyrazol-5-yl)methyl)-3-(6-(3-hydroxypyrrolidin-1-yl)pyridin-3-yl)urea]
61 nM | CC(C)(C)c1cc(CNC(=O)Nc2ccc(N3CC[C@H](O)C3)nc2)n(-c2cccc(Cl)c2)n1 [Example 127, (S)-1-((3-tert-butyl-1-(3-chlorophenyl)-1H-pyrazol-5-yl)methyl)-3-(6-(3-hydroxypyrrolidin-1-yl)pyridin-3-yl)urea]
13 nM | COc1ccc(C(C)C(=O)NCc2cc(C(F)(F)F)nn2-c2cccc(Cl)c2)cn1 (stereo not drawn) [Example 129, N-((1-(3-chlorophenyl)-3-(trifluoromethyl)-1H-pyrazol-5-yl)methyl)-2-(6-methoxypyridin-3-yl)propanamide]
47 nM | Cc1ccc(NC(=O)NCc2cc(C(F)(F)F)nn2-c2cccc(Cl)c2)cn1 [Example 136, 1-((1-(3-chlorophenyl)-3-(trifluoromethyl)-1H-pyrazol-5-yl)methyl)-3-(6-methylpyridin-3-yl)urea]
90 nM | Cc1cc(C)c(NC(=O)NCc2cc(C(F)(F)F)nn2-c2cccc(Cl)c2)cn1 [Example 138, 1-((1-(3-chlorophenyl)-3-(trifluoromethyl)-1H-pyrazol-5-yl)methyl)-3-(4,6-dimethylpyridin-3-yl)urea]
109 nM | CC(C)(C)c1cc(CNC(=O)Nc2ccc(CO)cn2)n(-c2cccc(Cl)c2)n1 [Example 139, 1-((3-tert-butyl-1-(3-chlorophenyl)-1H-pyrazol-5-yl)methyl)-3-(5-(hydroxymethyl)pyridin-2-yl)urea]
1.5 nM | CC(C(=O)NCc1cc(C(F)(F)F)nn1-c1cccc(Cl)c1)c1cnc(CO)c(F)c1 (stereo not drawn) [Example 142, N-((1-(3-chlorophenyl)-3-(trifluoromethyl)-1H-pyrazol-5-yl)methyl)-2-(5-fluoro-6-(hydroxymethyl)pyridin-3-yl)propanamide]
121 nM | O=C(NCc1cc(C(F)(F)F)nn1-c1cccc(Cl)c1)Nc1ccc(C(O)CO)nc1 (stereo not drawn) [Example 145, 1-((1-(3-chlorophenyl)-3-(trifluoromethyl)-1H-pyrazol-5-yl)methyl)-3-(6-(1,2-dihydroxyethyl)pyridin-3-yl)urea]
0.6 nM | CC(C(=O)NCc1cc(C(F)(F)F)nn1-c1cccc(Cl)c1)c1ccc(NCCO)nc1 (stereo not drawn) [Example 146, N-((1-(3-chlorophenyl)-3-(trifluoromethyl)-1H-pyrazol-5-yl)methyl)-2-(6-(2-hydroxyethylamino)pyridin-3-yl)propanamide]

Further lines, the molecule ahead of its results:

Structure (SMILES) | Ki
CC(C)(C)c1cc(CNC(=O)Nc2ccc(N3CC(O)C3)nc2)n(-c2cccc(F)c2)n1 [Example 110, 1-((3-tert-butyl-1-(3-fluorophenyl)-1H-pyrazol-5-yl)methyl)-3-(6-(3-hydroxyazetidin-1-yl)pyridin-3-yl)urea] | 37 nM
Cc1cccc(-n2nc(C(F)(F)F)cc2CNC(=O)Nc2ccc(N3CC(O)C3)nc2)c1 [Example 114, 1-(6-(3-hydroxyazetidin-1-yl)pyridin-3-yl)-3-((1-m-tolyl-3-(trifluoromethyl)-1H-pyrazol-5-yl)methyl)urea] | 35 nM
O=C(NCc1cc(C(F)(F)F)nn1-c1cccc(Cl)c1)Nc1ccc(N2CCCC2)nc1 [Example 121, 1-((1-(3-chlorophenyl)-3-(trifluoromethyl)-1H-pyrazol-5-yl)methyl)-3-(6-(pyrrolidin-1-yl)pyridin-3-yl)urea] | 47 nM
O=C(NCc1cc(C(F)(F)F)nn1-c1cccc(Cl)c1)Nc1ccc(N2CC[C@@H](O)C2)nc1 [Example 124, (R)-1-((1-(3-chlorophenyl)-3-(trifluoromethyl)-1H-pyrazol-5-yl)methyl)-3-(6-(3-hydroxypyrrolidin-1-yl)pyridin-3-yl)urea] | 64 nM
CC(C)(C)c1cc(CNC(=O)Nc2ccc(N3CC[C@@H](O)C3)nc2)n(-c2cccc(Cl)c2)n1 [Example 126, (R)-1-((3-tert-butyl-1-(3-chlorophenyl)-1H-pyrazol-5-yl)methyl)-3-(6-(3-hydroxypyrrolidin-1-yl)pyridin-3-yl)urea] | 61 nM
O=C(NCc1cc(C(F)(F)F)nn1-c1cccc(Cl)c1)Nc1ccc(OCCO)nc1 [Example 133, 1-((1-(3-chlorophenyl)-3-(trifluoromethyl)-1H-pyrazol-5-yl)methyl)-3-(6-(2-hydroxyethoxy)pyridin-3-yl)urea] | 88 nM
Cc1cncc(NC(=O)NCc2cc(C(F)(F)F)nn2-c2cccc(Cl)c2)c1 [Example 137, 1-((1-(3-chlorophenyl)-3-(trifluoromethyl)-1H-pyrazol-5-yl)methyl)-3-(5-methylpyridin-3-yl)urea] | 55 nM
Cc1nc(CCO)ccc1NC(=O)NCc1cc(C(F)(F)F)nn1-c1cccc(Cl)c1 [Example 143, 1-((1-(3-chlorophenyl)-3-(trifluoromethyl)-1H-pyrazol-5-yl)methyl)-3-(6-(2-hydroxyethyl)-2-methylpyridin-3-yl)urea] | 84 nM
CC(C)(C)c1cc(CNC(=O)Nc2ccc(C(O)CO)nc2)n(-c2cccc(Cl)c2)n1 (stereo not drawn) [Example 144, 1-((3-tert-butyl-1-(3-chlorophenyl)-1H-pyrazol-5-yl)methyl)-3-(6-(1,2-dihydroxyethyl)pyridin-3-yl)urea] | 24 nM

Same assay, conditions: capsaicin (Cap); human being

mode of action at VR1/TRPV1 (AG, pAG, NE), Cap | Structure (SMILES)
AG | COCCOc1ccc(NC(=O)NCc2cc(C(C)(C)C)nn2-c2cccc(Cl)c2)cn1 [Example 131, 1-((3-tert-butyl-1-(3-chlorophenyl)-1H-pyrazol-5-yl)methyl)-3-(6-(2-methoxyethoxy)pyridin-3-yl)urea]
NE | O=C(NCc1cc(C(F)(F)F)nn1-c1cccc(Cl)c1)Nc1ccc(CNCCO)nc1 [Example 134, 1-((1-(3-chlorophenyl)-3-(trifluoromethyl)-1H-pyrazol-5-yl)methyl)-3-(6-((2-hydroxyethylamino)methyl)pyridin-3-yl)urea]
